Test results: ChEMBL document CHEMBL3507680, “University of Dundee, Gates Library screen for HepG2 cell viability”

Assay: Human HepG2 cell viability assay in 384 well format
Format: toxicity, cell-based
Set-up: dose 125 nL, time 70.5 hour; concentration not given beside the values
Conditions: HepG2 cells, read-out: Inhibition

Structure (SMILES)	cytotoxicity at 70.5 h
CCc1ccccc1C(=O)N1CCN(S(C)(=O)=O)[C@@H](C)C1	-9.19%
CC(C)OCCOCc1cccc(NC(=O)NCc2ccncc2)c1	2.35%
COc1cc(NC(=O)c2ccccc2F)c(C(=O)N(C)C)cc1OC	-10.5%
NC(=O)c1ccc(N2CCCCC2)c(NC(=O)c2cc(Br)ccc2F)c1	-5.55%
Cc1cc(CN(C)C(=O)C2CCCN(C(=O)c3cccs3)C2)no1 (stereo unspecified)	-10.3%
N#Cc1ccc(OCCNc2cccc(C(=O)N3CCOCC3)c2)cc1	-13.9%
Cc1cc(CNC(=O)NC(C)c2ccncc2)no1 (stereo unspecified)	-9.9%
CCc1noc(C(C)N2CCC(NC(=O)c3ccc(C)s3)CC2)n1 (stereo unspecified)	-7.01%
CC(C)(C)c1ccc(C2(C(=O)NCCCS(C)(=O)=O)CC2)cc1	-1.31%
O=C(C1CCOC1)N1CCC2(CC1)CN(Cc1nccs1)CCO2 (stereo unspecified)	-2.99%
Cc1noc(C)c1CN1CC[C@H]2C[C@H](c3nccs3)O[C@@H]2C1	-9.22%
O=C(C1CCOC1)N1CCC2(CCN(Cc3nccs3)CC2)CC1 (stereo unspecified)	-15.1%
COc1cc(N2CC[C@@H](O)[C@@H]2Cc2ccccc2)ncn1	-5.14%
O=C(c1ccoc1)N1CC[C@@H]2O[C@@H](COCc3ccccn3)CC[C@@H]21	-3.1%
CN1C(=O)CC(c2cnn(C)c2)C12CCN(C(=O)c1ccnnc1)CC2 (stereo unspecified)	-9.97%
CN1CCN(Cc2ccc(F)cc2)Cc2cccnc21	-7.2%
O=C(c1ccoc1)N1CC[C@@H]2O[C@@H](COCc3ccncc3)CC[C@@H]21	10.2%
c1cnc(N2CCCC3(CCN(Cc4ccsc4)C3)C2)nc1 (stereo unspecified)	11.1%
CC(C)Nc1ncnc2c1CCN(C(=O)CN(C)C)CC2	36.6%
Cc1nc(COC[C@H]2CCC[C@]23CN(CC2CC2)CCO3)cs1	18.4%
CN(C)C(=O)COCC1CN(Cc2ccsc2)Cc2nccn2C1 (stereo unspecified)	-7.22%
CC1=N[C@@]2(CC[C@@H]3CN(C(=O)NCc4cccc(F)c4)C[C@@H]32)C(=O)N1	-3.91%

Structure (SMILES)	cytotoxicity at 70.5 h
O=C(Nc1ccccc1)N1CC(C(=O)N2CCCC2)C2(CCOCC2)C1 (stereo unspecified)	-10.8%
Cc1cccc(NC(=O)N2CC(C(=O)NC(C)C)C3(CCOCC3)C2)c1 (stereo unspecified)	9.15%
CC1=N[C@@]2(CC[C@@H]3CN(C(=O)NCc4ccccc4C)C[C@@H]32)C(=O)N1	7.73%
CC1=N[C@@]2(CC[C@@H]3CN(C(=O)NCCc4ccccc4)C[C@@H]32)C(=O)N1	7.76%
CCC1=N[C@@]2(CC[C@@H]3CN(C(=O)NCC4CCCCC4)C[C@@H]32)C(=O)N1	-2.69%
O=C(c1cscn1)N1CCC2(CC1)CN(c1ccccn1)CCO2	-9.14%
O=C(NCC1CC1)c1c2c(N3CCCC3)ncnc2n2ccccc12	9.08%
COCC(=O)N1CC[C@@H](N2CCN(C)CC2)[C@@H]1Cc1ccccc1	9.62%
CNC(=O)C1=NOC2(CCN(Cc3nccs3)C2)C1 (stereo unspecified)	-3.01%
Cc1cc2ccccc2n1CCC(=O)N1CCCC2(CC1)CNC(=O)O2 (stereo unspecified)	-7.42%
Cc1cc(C(=O)N(Cc2c(C)nn(C)c2C)C(C)C)nc(C)n1	17%
NC(=O)c1csc(N2CCN(C3CCc4ccccc4C3)CC2)n1 (stereo unspecified)	-14.7%
CS(=O)(=O)CCN1C[C@H](NC(=O)c2cnc(O)cn2)[C@@H](C2CC2)C1	11.1%
O=C(CCc1nc(-c2ccccc2)no1)N[C@H]1COC[C@@H]1N1CCCC1	-9.03%
CCC(Nc1nc(CCN)nc2ccccc12)c1cccs1 (stereo unspecified)	-3.38%
CCC(NC(=O)C1CCN(C(C)C)CC1)c1cn2cccnc2n1 (stereo unspecified)	-2.43%
Cc1nn(C)c2nc(NCCCN3CCCC(C(N)=O)C3)sc12 (stereo unspecified)	-8.69%
CSc1cccc(NC(=O)N2CCCC(CNC(=O)c3ccco3)C2)c1 (stereo unspecified)	-8.32%
CC(C)CCN1CC2(CCN(C3CCCOC3)CC2)OC1=O (stereo unspecified)	-8.74%
Cc1cccc2c1nc(COCC(=O)O)n2-c1ccc(N)nc1	9.09%
CN(C)CCO[C@H]1C[C@@H](O)C12CCN(c1ncccc1Cl)CC2	-5.24%
O=C(O)c1cc(-c2ccoc2)cc(S(=O)(=O)NCc2ccccn2)c1	-8.18%

Structure (SMILES)	cytotoxicity at 70.5 h
COc1ccc2c(c1)OCC(Cc1cc(C(=O)N3CCCC3)ccn1)C2 (stereo unspecified)	-32.3%
O=C1NCCCc2[nH]c(C3CCN(C(=O)C4CC4)CC3)nc21	11.6%
Cc1nc(N(Cc2ccncc2)CC2CCCO2)c2ccsc2n1 (stereo unspecified)	-5.47%
CCCS(=O)(=O)NCc1cccnc1Oc1ccc(C)c(F)c1F	-1.35%
CC(C)CN(Cc1cnn(C)c1)C(=O)C1COc2ccccc2C1 (stereo unspecified)	1.15%
Cc1nc[nH]c1C(=O)NCc1cccnc1N(C)C1CCCCC1	4.83%
O=C(CC1COCCN1)N1CCC(N2CCc3ccccc3C2)CC1 (stereo unspecified)	7.65%
CCn1nc(C)c(CCNC(=O)c2cccc(NCC(=O)O)c2)c1C	1.17%
CN(C)c1nc2c(c(=O)[nH]1)CCN(C(=O)c1ccc(=O)[nH]c1)C2	-3.2%
CCn1c(C2CCCN(Cc3ccc(OC)c(C)c3C)C2)nn(C)c1=O (stereo unspecified)	-5.07%
N#CC1(c2ccccc2)CCN(C(=O)C2CCCN(C(N)=O)C2)CC1 (stereo unspecified)	43.9%
Cc1[nH]c2c(C)ccc(C)c2c1CC(=O)NC1CCCNC1=O (stereo unspecified)	-5.85%
Cc1ccc(-c2nnc(CN3CCCC(O)(CO)CC3)o2)n1C (stereo unspecified)	14.8%
COc1cccc2c1OCC(Cc1cnc(N)c(C)c1)C2 (stereo unspecified)	-8.04%
Cn1cc(CCC(=O)N2C[C@H]3CC[C@@H]2CN(Cc2cccnc2)C3)cn1	12.2%
C[C@@H]1CN(CCC(=O)NCc2ccccc2Cl)CC[C@@]1(O)C1CCC1	-0.451%
COCc1cc(N2CCOCC2)n2nccc2n1	-3.4%
Cc1nc(C)c(Cc2nc(C3CC3)n[nH]2)c(=O)[nH]1	-3.16%
O=C(c1cc(=O)[nH]c(=O)[nH]1)N1CCCC(CO)(CC2CC2)C1 (stereo unspecified)	-10.5%
CCOC[C@]12COC[C@H]1CN(Cc1cccc(OC)c1)C2	-5.95%
CCn1ncc2c1C(COCC1CC1)CN(C(=O)c1ccncn1)C2 (stereo unspecified)	-10.2%
Cc1noc([C@@H]2CCO[C@@H]3CCN(Cc4ccc(C)s4)C[C@@H]32)n1	-10.1%

Structure (SMILES)	cytotoxicity at 70.5 h
Cn1ncc2c1C(COCC1CC1)CN(C(=O)c1cscn1)C2 (stereo unspecified)	-7.06%
COCC(=O)N1CCC2(CC1)COCCN2Cc1ccc(F)cc1	-11.6%
O=C(N1CCOCC1)N1C[C@H]2CN(Cc3nccs3)C[C@H]2C1	3.41%
CCOCC1CN(C(=O)c2ccnnc2)Cc2cnn(CC)c21 (stereo unspecified)	-6.52%
CNC(=O)CN1CCC12CCN(C(=O)Cc1ccccc1)C2 (stereo unspecified)	-17.2%
O=C(c1ccco1)N1CC[C@@H]2O[C@@H](COCCN3CCCC3)CC[C@@H]21	-3.08%
Cc1nc(COC[C@H]2CCC[C@@]23CN(C(C)C)CCO3)cs1	-6.88%
O=C(c1ccoc1)N1CC[C@@H]2O[C@@H](COCCN3CCCC3)CC[C@@H]21	-12.6%
O=C(c1ccco1)N1CC[C@@H]2O[C@H](COCCN3CCCC3)CC[C@@H]21	10.5%
c1cnc(N2CCC3(CCCN(Cc4ccncc4)C3)CC2)nc1	18.3%
Cc1ccc2c(n1)N(CC(C)C)CCN(S(C)(=O)=O)C2	-6.3%
Cc1occc1C(=O)N1CCC2(CC1)CN(c1ccccn1)CCO2	-5.88%
Cc1noc(C)c1CN1CC[C@H]2OCC[C@@]2(C(=O)NC2CCCC2)C1	-9.16%
O=S(=O)(NCC1COCc2c(-c3ccncc3)nnn2C1)C1CC1 (stereo unspecified)	-3.99%
Cc1ccoc1C(=O)N1CCn2nnc(COc3cccnc3)c2C1	-11.5%
COc1cc(N2C[C@H]3CCC[C@@H](CN(C)C)[C@H]3C2)ncn1	-10.1%
Cn1cccc1C(=O)N1CCn2nnc(COc3cccnc3)c2C1	-8.46%
COc1cc(N2C[C@H]3CCC[C@@H](CN4CCOCC4)[C@H]3C2)ncn1	-8.48%
c1cc(CN2C[C@@H]3OCCN(CC4CCCO4)[C@@H]3C2)cs1 (stereo partly specified)	-7.25%
COc1cccc(CN2C[C@@H]3COC[C@]3(COc3cccnc3)C2)c1	3.66%
COc1cccc(CN2C[C@@H]3COC[C@]3(CN3CCOCC3)C2)c1	6.49%
O=C1N(c2cncnc2)CCC12CCCN(Cc1cccnc1)C2 (stereo unspecified)	-3.72%

Structure (SMILES)	cytotoxicity at 70.5 h
c1cc(COC[C@]23COC[C@H]2CN(CC2CCC2)C3)ccn1	-11.8%
CNC(=O)CN1CCOCC12CCN(CCc1ccccc1)CC2	-13.5%
COc1cc(N2C[C@@H]3COC[C@]3(COCc3ccccn3)C2)ncn1	-4.79%
Fc1cnc(N2CCCC3(CCN(Cc4cccs4)C3)C2)nc1 (stereo unspecified)	-2.04%
Fc1ccc(CN2CCC3(CC2)CCN(c2ncccn2)CC3)cc1	10.9%
Cc1cccc(CN2Cc3nccn3CC(CN3CCOCC3)C2)c1 (stereo unspecified)	-9.03%
c1nc(CNC2CCOCC2)c2n1CCCN(CC1CC1)C2	-3.82%
CCS(=O)(=O)N1CCN(Cc2ccncc2)c2nc(C)ccc2C1	-5.64%
O=C(c1cccnc1)N1CCn2nnc(COc3ccccn3)c2C1	-14.2%
CCS(=O)(=O)N1CCN(Cc2cccnc2)c2nc(C)ccc2C1	5.16%
c1cncc(OCC2CN(Cc3ccsc3)Cc3nccn3C2)c1 (stereo unspecified)	6.26%
CS(=O)(=O)NCc1ncn2c1CN(Cc1cccs1)CCC2	-7.97%
O=C1CC2(CCN(Cc3cccnc3)C2)CN1c1ccc2c(c1)OCO2 (stereo unspecified)	12.8%
O=C1CO[C@@H]2CN(Cc3cccs3)C[C@H]2N1Cc1cccnc1	-10.9%
c1ccc(CN2C[C@@H]3COC[C@]3(COCc3ccncc3)C2)nc1	-2.45%
COc1ccc(CN2C[C@@H]3OCCN(CCN(C)C)[C@@H]3C2)cc1	-3.2%
CCc1ccc(CN2Cc3nccn3CC(CN3CCOCC3)C2)o1 (stereo unspecified)	-5.92%
O=C1CO[C@@H]2CN(Cc3cccnc3)C[C@H]2N1Cc1ccncc1	-6.09%
